Test results published in US20050192221A1, “Methods and compositions related to plunc polypeptides” (priority 2003, published 2005).
In brackets after ≈: the same amount, converted by molar mass. Several values for one entry are separate records, joined by “and”; a condition that tells them apart may be missing. Equal values may be shown once. Entries after “also recorded” stand apart in the source; their conditions may differ. Read-outs that look alike come from different tables or passages of the source.

What was measured:
Mycoplasma pneumoniae = details: cited from earlier work
Staphylococcus aureus = details: cited from earlier work; for MIC50 / MIC90: unit assumed
Mycoplasma hominis = details: cited from earlier work
[1] = test system: Haemophilus parainfluenzae; details: cited from earlier work
Campylobacter pylori = details: cited from earlier work
Neisseria gonorrhoeae = details: in µg/mL (unit assumed), cited from earlier work
Haemophilus influenzae = details: in µg/mL (unit assumed), cited from earlier work
Bacteroides fragilis = details: cited from earlier work
Borrelia burgdorferi = details: unit assumed; cited from earlier work
Enterococcus faecium = details: unit assumed; cited from earlier work
Bacillus spp. = details: cited from earlier work
Haemophilus ducreyi = details: unit assumed; cited from earlier work
Campylobacter jejuni = details: in µg/mL (unit assumed); cited from earlier work
Neisseria meningitidis = details: cited from earlier work
Streptococcus pneumoniae = details: in µg/mL (unit assumed); cited from earlier work
Listeria monocytogenes = details: unit assumed; cited from earlier work
[2] = test system: Bordetella bronchiseptica; details: cited from earlier work
Streptococcus agalactiae = details: cited from earlier work
Enterococcus spp. = details: unit assumed; cited from earlier work
[3] = test system: Branhamella (Moraxella) catarrhalis; details: Branhamella (Moraxella) catarrhalis (β-lactamase producer); in µg/mL (unit assumed); cited from earlier work
Streptococcus spp. = details: unit assumed; cited from earlier work
Streptococcus pyogenes = details: in µg/mL (unit assumed); cited from earlier work
[4] = test system: human peripheral blood mononuclear cells stimulated by N. meniningititis lipo-oligosaccharide (LOS); assay: LOS stimulation of human peripheral blood mononuclear cells; type: cell-based; details: baculovirus culture supernatants, N-terminal tagged proteins, 10 ng/ml N. meniningititis LOS
LOS = assay: Limulus amebocyte lysate assay, detected LOS; type: biochemical; details: proteins from cell free in vitro translation (RTS) or HeLa supernatants, dilutions 1:1 to 1:8; 0.1 ng/ml LOS
[5] = test system: TLR4 mediated signaling in human umbilical vein endothelial cells (HUVECS); assay: LOS stimulated IL-8 release from HUVECS; type: cell-based; details: HUVECs treated overnight with LOS aggregates (3 ng/ml), soluble CD14 (250 ng/ml), LBP (100 ng/ml); ASL washings or supernatants of transfected 293 cells
Description: FIGS. 2A-2B. Effects of airway surface liquid (ASL), PLUNC, and LPLUNC1 on TLR4 mediated signaling in human umbilical vein endothelial cells (HUVECS). HUVECS in a 24 well dish were exposed to LOS from N. Meningitidis overnight in the presence of SCD14 and LBP. […] Control=media alone. […] Control cells were transfected with a plasmid expressing GFP. The transfection efficiency, based on GFP expression was >75%.
Alternatively, the inventors also consider the possibility that the properties of the proteins may be LBP-like and that their function may depend on the available concentrations. The ability of ASL to inhibit TLR4-mediated signaling in response to N. meningitis lipooligosaccharide (LOS) was tested in human umbilical vein endothelial cells (HUVECs) (Giardina et al., 2001). ASL secretions were recovered from the apical surface of primary cultures of human airway epithelia grown in serum free media by washing the surface with PBS. As show in FIG. 2A, HUVECs treated overnight with LOS aggregates (3 ng/ml) in the presence of soluble CD14 (250 ng/ml) and LBP (100 ng/ml) released significant quantities of IL-8 into the cell culture media. […] To determine whether PLUNC and/or LPLUNC1 have similar effects on TLR4 signaling, the inventors expressed their cDNAs in 293 cells grown in serum free media and harvested supernatants 48 hr following transfection.

[6] = test system: endotoxin from E. coli 0111:B4; assay: Limulus amebocyte lysate assay, endotoxin spiked with serial dilutions; type: biochemical; details: 30 ng E. coli endotoxin/well spiked with serial dilutions of ASL washings or supernatant from LPLUNC1 transfected 293 cells
Description: FIG. 3. ASL and LPLUNC1 inhibit endotoxin activity in the Limulus amebocyte lysate assay. Endotoxin activity contrasted in control media (closed circles, 30 ng E. coli endotoxin/well), or 30 ng endotoxin samples spiked with serial dilutions of ASL washings (closed squares) or cell culture supernatant from LPLUNC1 transfected 293 cells (closed diamonds). 10 EU=1 ng endotoxin.
As confirmation of the endotoxin binding activities of ASL secretions and expressed LPLUNC1, an additional assay was performed. The Limulus amebocyte lystate assay (QCL-1000; BioWhittaker, Walkersville, Md.) was used to determine if these samples inhibited endotoxin activity in this extremely sensitive laboratory test. Lyophilized standard endotoxin from E. coli 0111:B4 in sterile water (chromogenic substrate) was spiked with serial dilutions of ASL washings, or supernatants from LPLUNC1 transfected cells. Endotoxin concentrations were determined by measuring the change in absorbance at 405 nm, as described previously (Thorne et al., 1999).

[7] = type: binding, N. meningitidis; details: recombinant LPLUNC1 C-terminal 6HIS incubated with 14C-LOS for 1 hr; versus Ad empty control supernatant
[8] = Neisseria gonorrhoeae (non β-lactamase producer)
[9] = Haemophilus influenzae (non β-lactamase producer)
[10] = Haemophilus influenzae (penicillin resistant)
[11] = Haemophilus influenzae (penicillin susceptible)
[12] = Haemophilus influenzae (β-lactamase producer)
[13] = Staphylococcus aureus (penicillin susceptible)

For `CCC[C@@H]1C[C@@H](C(=O)N[C@@H]([C@H]2O[C@H](SC)[C@H](O)[C@@H](O)[C@H]2O)[C@@H](C)O)N(C)C1` [LINCOMYCIN, lincomycin], the “Range (of MIC)” value (Mycoplasma pneumoniae; in µg/mL (unit assumed)) is given as 2-32, the MIC50 (Mycoplasma pneumoniae; unit assumed) is given as 8 µg/mL (≈ 19.7 µM) and the MIC90 (Mycoplasma pneumoniae; unit assumed) is given as 32 µg/mL (≈ 78.7 µM). The “Range (of MIC)” value (Staphylococcus aureus; Staphylococcus aureus, in µg/mL (unit assumed)) was 0.5-512, the MIC50 (Staphylococcus aureus; Staphylococcus aureus) was 1 µg/mL (≈ 2.46 µM) and the MIC90 (Staphylococcus aureus; Staphylococcus aureus) was 1 µg/mL (≈ 2.46 µM). The “Range (of MIC)” value (Mycoplasma hominis; in µg/mL (unit assumed)) was 0.5-16, the MIC50 (Mycoplasma hominis; unit assumed) was 2 µg/mL (≈ 4.92 µM) and the MIC90 (Mycoplasma hominis; unit assumed) was 4 µg/mL (≈ 9.84 µM).

For `CC[C@H]1OC(=O)[C@H](C)[C@@H](O[C@H]2C[C@@](C)(OC)[C@@H](O)[C@H](C)O2)[C@H](C)[C@@H](O[C@@H]2O[C@H](C)C[C@H](N(C)C)[C@H]2O)[C@](C)(O)C[C@@H](C)C(=O)[C@H](C)[C@@H](O)[C@]1(C)O` [ERYTHROMYCIN, erythromycin], the “Range (of MIC)” value ([1]; in µg/mL (unit assumed)) is given as 0.5-8, the MIC50 ([1]; unit assumed) is given as 2 µg/mL (≈ 2.73 µM) and the MIC90 ([1]; unit assumed) is given as 4 µg/mL (≈ 5.45 µM). For the same molecule, the “Range (of MIC)” value (Campylobacter pylori; in µg/mL (unit assumed)) was 0.25-16, the MIC50 (Campylobacter pylori; unit assumed) was 0.5 µg/mL (≈ 0.681 µM) and the MIC90 (Neisseria gonorrhoeae; [8]) was 1 and 2. The “Range (of MIC)” value (Neisseria gonorrhoeae; [8]) was 0.03-2 and 0.015-4, the MIC90 (Neisseria gonorrhoeae; Neisseria gonorrhoeae (β-lactamase producer)) was 2 and 4 and the MIC90 (Neisseria gonorrhoeae; Neisseria gonorrhoeae) was 1. For the same molecule, the “Range (of MIC)” value (Neisseria gonorrhoeae; Neisseria gonorrhoeae) was 0.0075-8, the MIC50 (Haemophilus influenzae; [9]) was 2 and 4 and the MIC90 (Haemophilus influenzae; [9]) was 4 and 8. For the same molecule, the MIC50 (Haemophilus influenzae; [10]) was 8, the MIC90 (Haemophilus influenzae; [10]) was 16 and the “Range (of MIC)” value (Haemophilus influenzae; [10]) was 8-16. The MIC50 (Haemophilus influenzae; [11]) was 8, the MIC90 (Haemophilus influenzae; [11]) was 16 and the “Range (of MIC)” value (Haemophilus influenzae; [11]) was 0.25-16. For the same molecule, the MIC50 (Haemophilus influenzae; [12]) was 4 and 2, the MIC90 (Haemophilus influenzae; [12]) was 8 and 4 and the MIC50 (Haemophilus influenzae; Haemophilus influenzae) was 2 and 1. For the same molecule, the MIC90 (Haemophilus influenzae; Haemophilus influenzae) was 2 and 4, the “Range (of MIC)” value (Haemophilus influenzae; Haemophilus influenzae) was 0.5-8 and the “Range (of MIC)” value (Bacteroides fragilis; in µg/mL (unit assumed)) was 0.25-16. For the same molecule, the MIC50 (Bacteroides fragilis; unit assumed) was 1 µg/mL (≈ 1.36 µM), the MIC90 (Bacteroides fragilis; unit assumed) was 8 µg/mL (≈ 10.9 µM) and the MIC50 (Borrelia burgdorferi) was 0.03 µg/mL (≈ 0.0409 µM). The MIC90 (Borrelia burgdorferi) was 0.06 µg/mL (≈ 0.0818 µM), the MIC50 (Enterococcus faecium) was 1 µg/mL (≈ 1.36 µM) and the “Range (of MIC)” value (Bacillus spp.; in µg/mL (unit assumed)) was 0.03-2. The MIC90 (Bacillus spp.; unit assumed) was 2 µg/mL (≈ 2.73 µM), the MIC50 (Staphylococcus aureus; Staphylococcus aureus (methicillin susceptible)) was 0.5 µg/mL (≈ 0.681 µM) and the MIC50 (Staphylococcus aureus; [13]) was 0.5 µg/mL (≈ 0.681 µM). For the same molecule, the MIC90 (Staphylococcus aureus; [13]) was 0.5 µg/mL (≈ 0.681 µM), the MIC50 (Staphylococcus aureus; Staphylococcus aureus) was 0.5 µg/mL (≈ 0.681 µM) and the MIC50 (Haemophilus ducreyi) was 0.004 µg/mL (≈ 0.00545 µM). For the same molecule, the MIC90 (Haemophilus ducreyi) was 0.06 µg/mL (≈ 0.0818 µM), the MIC90 (Campylobacter jejuni) was 4 and 2 and the “Range (of MIC)” value (Campylobacter jejuni) was 0.5-8. The “Range (of MIC)” value (Neisseria meningitidis; in µg/mL (unit assumed)) was 0.5-8, the MIC50 (Neisseria meningitidis; unit assumed) was 1 µg/mL (≈ 1.36 µM) and the MIC90 (Neisseria meningitidis; unit assumed) was 8 µg/mL (≈ 10.9 µM). The MIC50 (Streptococcus pneumoniae) was 0.06 and 0.03, the MIC90 (Streptococcus pneumoniae) was 0.03 and 0.06 and the “Range (of MIC)” value (Streptococcus pneumoniae) was 0.03-0.25 and 0.015-0.06 and 0.015-0.25. The MIC50 (Listeria monocytogenes) was 0.5 µg/mL (≈ 0.681 µM), the “Range (of MIC)” value ([2]; in µg/mL (unit assumed)) was 4-32 and the MIC50 ([2]; unit assumed) was 8 µg/mL (≈ 10.9 µM). For the same molecule, the MIC90 ([2]; unit assumed) was 32 µg/mL (≈ 43.6 µM), the “Range (of MIC)” value (Streptococcus agalactiae; in µg/mL (unit assumed)) was 0.03-0.25 and 0.015-0.06 and the MIC50 (Streptococcus agalactiae; unit assumed) was 0.03 µg/mL (≈ 0.0409 µM). For the same molecule, the MIC90 (Streptococcus agalactiae; unit assumed) was 0.03 µg/mL (≈ 0.0409 µM), the MIC50 (Enterococcus spp.) was 2 µg/mL (≈ 2.73 µM) and the “Range (of MIC)” value [3] was 0.06-1 and 0.03-0.25 and 0.06-8. The MIC50 (Streptococcus spp.) was 0.03 µg/mL (≈ 0.0409 µM) and the MIC50 (Streptococcus pyogenes) was 0.06 and 0.03.

B1: PLUNC: human palate, lung, and nasal epithelium clone protein, 256 amino acids; tested as recombinant culture supernatant or in vitro translation product (protein, UniProt Q9NP55 20-256, looked up)
BPI fold-containing family A …: QFGGLPVPLDQTLPLNVNPALPLSPTGLAGSLTNALSNGLLSGGLLGILENLPLLDILKPGGGTSGGLLGGLLGKVTSVIPGLNNIIDIKVTDPQLLELGLVQSPDGHRLYVTIPLGIKLQVNTPLVGASLLRLAVKLDITAEILAVRDKQERIHLVLGDCTHSPGSLQISLLDGLGPLPIQGLLDSLTGILNKVLPELVQGNVCPLVNEVLRGLDITLVHDIVNMLIHGLQFVIKV
For B1, the “effect on responsiveness of PBMC to LOS stimulation” value (shortened to “effect on responsiveness of PBMC”) [4] was “LBP-like pro-inflammatory activity”, the “effect on responsiveness of PBMC” value ([4]; listed as SPLUNC1) was “enhanced the LOS signaling” and the “detectable level of LOS” value (LOS) was “dose-dependent decrease in detected LOS”. For the same molecule, the “effect on LOS stimulated IL-8 release from HUVECS” value [5] was “dampened IL-8 secretion”.

B2: LPLUNC1: human long PLUNC protein, 484 amino acids; tested as recombinant culture supernatant, in vitro translation product or 6HIS tagged protein (protein, UniProt Q8TDL5 22-484, looked up)
BPI fold-containing family B …: TLSPTAVLILGPKVIKEKLTQELKDHNATSILQQLPLLSAMREKPAGGIPVLGSLVNTVLKHIIWLKVITANILQLQVKPSANDQELLVKIPLDMVAGFNTPLVKTIVEFHMTTEAQATIRMDTSASGPTRLVLSDCATSHGSLRIQLLHKLSFLVNALAKQVMNLLVPSLPNLVKNQLCPVIEASFNGMYADLLQLVKVPISLSIDRLEFDLLYPAIKGDTIQLYLGAKLLDSQGKVTKWFNNSAASLTMPTLDNIPFSLIVSQDVVKAAVAAVLSPEEFMVLLDSVLPESAHRLKSSIGLINEKAADKLGSTQIVKILTQDTPEFFIDQGHAKVAQLIVLEVFPSSEALRPLFTLGIEASSEAQFYTKGDQLILNLNNISSDRIQLMNSGIGWFQPDVLKNIITEIIHSILLPNQNGKLRSGVPVSLVKALGFEAAESSLTKDALVLTPASLWKPSSPVSQ
For B2, the “inhibition of endotoxin activity” value [6] was “inhibited endotoxin activity in a dose dependent fashion”, the “effect on responsiveness of PBMC” value [4] was “BPI-like inhibitory effects; also recorded: dampened the proinflammatory effect of LOS” and the “detectable level of LOS” value (LOS) was “dose-dependent decrease in detected LOS”. The “effect on LOS stimulated IL-8 release from HUVECS” value [5] was “dampened IL-8 secretion” and the “14C-LOS recovered with nickel resin” value [7] was “Significantly more LOS was recovered”.
